Test results: US11066416B2, “Rapafucin derivative compounds and methods of use thereof” (The Johns Hopkins University, priority 2016, dated 2021)
pIC50: −log10 of the molar value.

Assays:
Format in all cases: cell-based
[1] = system: specific cell lines indicated in each assay; test: Cell proliferation assay (Prolif.), IC50 or single concentration, cell line as indicated in each table; settings: A549 cells; for Prolif, A549: Table 10; for Rel. Prolif., A549: single concentration, response relative to DMSO
Experimental: (§1) Cell Proliferation Assay (Prolif.) Guo et al. (2018) Nat. Chem. 11:254-63. Specific cell lines are indicated in each assay and cultured in complete growth media. Activity is scored according to the IC50 values relative to DMSO control. “Low” indicates an IC50 greater than 600 nM, “Medium” indicates an IC50 between 300 nM and 600 nM “High” indicates an IC50 less than 300 nM. “Rel.Uptake” refers to uptake activity characterization relative to a single concentration assay. “Low” indicates a response greater than 0.6 times the activity relative to DMSO, “Medium” indicates a response between 0.6 and 0.3 times the activity relative to DMSO, “High” indicates a response less than 0.3 times the activity relative to DMSO.

H929 = test: Cell proliferation assay (Prolif.), H929; settings: for Prolif. H929: H929 cells, IC50 class relative to DMSO control; for Rel. Prolif., NCI-H929: NCI-H929 cells, single concentration, response relative to DMSO
Experimental: as §1

[2] = system: nucleoside uptake (3H-Thymidine); test: Rel.Uptake: nucleoside uptake, single concentration assay, cell line as indicated in each table; settings: 293T, nucleoside uptake, response relative to DMSO
Experimental: Nucleoside Uptake Assay (uptake). Nuceloside uptake assays were performed with using 3H-Thymidine as described in Guo et al. (2018) Nat. Chem. 11:254-63. Specific cell lines are indicated in each assay and cultured in complete growth media. Activity is scored according to the IC50 values relative to DMSO control. “Low” indicates an IC50 greater than 600 nM, “Medium” indicates an IC50 between 300 nM and 600 nM “High” indicates an IC50 less than 300 nM. “Rel.Uptake” refers to uptake activity characterization relative to a single concentration assay. “Low” indicates a response greater than 0.6 times the activity relative to DMSO, “Medium” indicates a response between 0.6 and 0.3 times the activity relative to DMSO, “High” indicates a response less than 0.3 times the activity relative to DMSO.

CCCC[C@H]1C(=O)N[C@@H](Cc2ccc3ccccc3c2)C(=O)N(C)[C@@H](COC(C)(C)C)C(=O)NCC(=O)N(C)CCC=CC(=O)OCC(C)(C)C(=O)C(=O)N2CCCC[C@H]2C(=O)O[C@H](CCc2cc(OC)c(OC)c(OC)c2)c2cccc(c2)OCC(=O)N1C [Compound 560]
Prolif, A549 [1]: medium | Rel. Prolif., A549 [1]: medium

CCCC[C@H]1C(=O)N[C@@H](Cc2ccc3ccccc3c2)C(=O)N(C)[C@@H](COC(C)(C)C)C(=O)NCC(=O)N(C)CCC=CC(=O)OCC(C)(C)C(=O)C(=O)N2CCCC[C@H]2C(=O)O[C@H](CCc2ccc(OC)c(OC)c2OC)c2cccc(c2)OCC(=O)N1C [Compound 561]
Prolif, A549 [1]: medium | Rel. Prolif., A549 [1]: medium

CCCC[C@H]1C(=O)N[C@@H](Cc2ccc3ccccc3c2)C(=O)N(C)[C@@H](COC(C)(C)C)C(=O)NCC(=O)N(C)CCC=CC(=O)OCC(C)(C)C(=O)C(=O)N2CCCC[C@H]2C(=O)O[C@H](CCc2cc(OC)c(OC)cc2OC)c2cccc(c2)OCC(=O)N1C [Compound 562]
Prolif, A549 [1]: medium | Rel. Prolif., A549 [1]: medium

CCCC[C@H]1C(=O)N[C@@H](Cc2ccc3ccccc3c2)C(=O)N(C)[C@@H](COC(C)(C)C)C(=O)NCC(=O)N(C)CCC=CC(=O)OCC(C)(C)C(=O)C(=O)N2CCCC[C@H]2C(=O)O[C@H](CCc2cc(OC)cc(OC)c2OC)c2cccc(c2)OCC(=O)N1C [Compound 563]
Prolif, A549 [1]: low | Rel. Prolif., A549 [1]: low

CCCC[C@H]1C(=O)N[C@@H](Cc2ccc3ccccc3c2)C(=O)N(C)[C@@H](COC(C)(C)C)C(=O)NCC(=O)N(C)CCC=CC(=O)OCC(C)(C)C(=O)C(=O)N2CCCC[C@H]2C(=O)O[C@H](CCc2c(OC)ccc(OC)c2OC)c2cccc(c2)OCC(=O)N1C [Compound 564]
Prolif, A549 [1]: low | Rel. Prolif., A549 [1]: low

CCCC[C@H]1C(=O)N[C@@H](Cc2ccc3ccccc3c2)C(=O)N(C)[C@@H](COC(C)(C)C)C(=O)NCC(=O)N(C)CCC=CC(=O)OCC(C)(C)C(=O)C(=O)N2CCCC[C@H]2C(=O)O[C@H](CCc2ccc(OC)c(OC)c2O)c2cccc(c2)OCC(=O)N1C [Compound 565]
Prolif, A549 [1]: medium | Rel. Prolif., A549 [1]: medium

CCCC[C@H]1C(=O)N[C@@H](Cc2ccc3ccccc3c2)C(=O)N(C)[C@@H](COC(C)(C)C)C(=O)NCC(=O)N(C)CCC=CC(=O)OCC(C)(C)C(=O)C(=O)N2CCCC[C@H]2C(=O)O[C@H](CCc2cc(O)c(OC)c(OC)c2)c2cccc(c2)OCC(=O)N1C [Compound 566]
Prolif, A549 [1]: medium | Rel. Prolif., A549 [1]: medium

CCCC[C@H]1C(=O)N[C@@H](Cc2ccc3ccccc3c2)C(=O)N(C)[C@@H](COC(C)(C)C)C(=O)NCC(=O)N(C)CCC=CC(=O)OCC(C)(C)C(=O)C(=O)N2CCCC[C@H]2C(=O)O[C@H](CCc2cc(OC)c(OC)cc2O)c2cccc(c2)OCC(=O)N1C [Compound 567]
Prolif, A549 [1]: medium | Rel. Prolif., A549 [1]: medium

CCCC[C@H]1C(=O)N[C@@H](Cc2ccc3ccccc3c2)C(=O)N(C)[C@@H](COC(C)(C)C)C(=O)NCC(=O)N(C)CCC=CC(=O)OCC(C)(C)C(=O)C(=O)N2CCCC[C@H]2C(=O)O[C@H](CCc2cc(F)c(OC)c(OC)c2)c2cccc(c2)OCC(=O)N1C [Compound 568]
Prolif, A549 [1]: medium | Rel. Prolif., A549 [1]: medium

CCCC[C@H]1C(=O)N[C@@H](Cc2ccc3ccccc3c2)C(=O)N(C)[C@@H](COC(C)(C)C)C(=O)NCC(=O)N(C)CCC=CC(=O)OCC(C)(C)C(=O)C(=O)N2CCCC[C@H]2C(=O)O[C@H](CCc2cc(OC)c(OC)cc2F)c2cccc(c2)OCC(=O)N1C [Compound 569]
Prolif, A549 [1]: medium | Rel. Prolif., A549 [1]: medium

CCCC[C@H]1C(=O)N[C@@H](Cc2ccc3ccccc3c2)C(=O)N(C)[C@@H](COC(C)(C)C)C(=O)NCC(=O)N(C)CCC=CC(=O)OCC(C)(C)C(=O)C(=O)N2CCCC[C@H]2C(=O)O[C@H](CCc2ccc(OC)c(OC)c2F)c2cccc(c2)OCC(=O)N1C [Compound 570]
Prolif, A549 [1]: medium | Rel. Prolif., A549 [1]: medium

CCCC[C@H]1C(=O)N[C@@H](Cc2ccc3ccccc3c2)C(=O)N(C)[C@@H](COC(C)(C)C)C(=O)NCC(=O)N(C)CCC=CC(=O)OCC(C)(C)C(=O)C(=O)N2CCN(C(=O)OCC3c4ccccc4-c4ccccc43)C[C@H]2C(=O)O[C@H](CCc2ccc(OC)c(OC)c2)c2cccc(c2)OCC(=O)N1C [Compound 571]
Prolif, A549 [1]: low | Rel. Prolif., A549 [1]: low

CCCC[C@H]1C(=O)N[C@@H](Cc2ccc3ccccc3c2)C(=O)N(C)[C@@H](COC(C)(C)C)C(=O)NCC(=O)N(C)CCC=CC(=O)OCC(C)(C)C(=O)C(=O)N2CCN(C)C[C@H]2C(=O)O[C@H](CCc2ccc(OC)c(OC)c2)c2cccc(c2)OCC(=O)N1C [Compound 572]
Prolif, A549 [1]: medium | Rel. Prolif., A549 [1]: medium

CCCC[C@H]1C(=O)N[C@@H](Cc2ccc3ccccc3c2)C(=O)N(C)[C@@H](COC(C)(C)C)C(=O)NCC(=O)N(C)CCC=CC(=O)OCC(C)(C)C(=O)C(=O)N2CCCC[C@H]2C(=O)O[C@H](CCc2ccc(OC)c(OC)c2)c2cc(ccc2F)OCC(=O)N1C [Compound 573]
Prolif, A549 [1]: low | Rel. Prolif., A549 [1]: low

CCCC[C@H]1C(=O)N[C@@H](Cc2ccc3ccccc3c2)C(=O)N(C)[C@@H](COC(C)(C)C)C(=O)NCC(=O)N(C)CCC=CC(=O)OCC(C)(C)C(=O)C(=O)N2CCCC[C@H]2C(=O)O[C@H](CCc2ccc(OC)c(OC)c2)c2cc(F)cc(c2)OCC(=O)N1C [Compound 574]
Prolif, A549 [1]: low | Rel. Prolif., A549 [1]: low

CCCC[C@H]1C(=O)N[C@@H](Cc2ccc3ccccc3c2)C(=O)N(C)[C@@H](COC(C)(C)C)C(=O)NCC(=O)N(C)CCC=CC(=O)OCC(C)(C)C(=O)C(=O)N2CCCC[C@H]2C(=O)O[C@H](CCc2ccc(OC)c(OC)c2)c2ccc(F)c(c2)OCC(=O)N1C [Compound 576]
Prolif, A549 [1]: medium | Rel. Prolif., A549 [1]: medium

COc1ccc(CC[C@H]2OC(=O)[C@@H]3CCCCN3C(=O)C(=O)C(C)(C)COC(=O)C=CCCN(C)C(=O)[C@@H](Cc3ccccc3)NC(=O)CN(C)C(=O)[C@@H](Cc3ccccc3)NC(=O)[C@H](Cc3ccc(OC(=O)N4CCOCC4)cc3)N(C)C(=O)COc3cccc2c3F)cc1OC [Compound 867]
Prolif. H929 (H929): low | Rel. Prolif., NCI-H929 (H929): low

COc1ccc(CC[C@H]2OC(=O)[C@@H]3CCCCN3C(=O)C(=O)C(C)(C)COC(=O)C=CCCN(C)C(=O)[C@@H](Cc3ccccc3)NC(=O)CN(C)C(=O)[C@@H](Cc3ccccc3)NC(=O)[C@H](Cc3ccc(OC(=O)N4CCOCC4)cc3)N(C)C(=O)COc3cc(F)cc2c3)cc1OC [Compound 868]
Prolif. H929 (H929): low | Rel. Prolif., NCI-H929 (H929): low

COc1ccc(CC[C@H]2OC(=O)[C@@H]3CCCCN3C(=O)C(=O)C(C)(C)COC(=O)C=CCCN(C)C(=O)[C@@H](Cc3ccccc3)NC(=O)CN(C)C(=O)[C@@H](Cc3ccccc3)NC(=O)[C@H](Cc3ccc(OC(=O)N4CCOCC4)cc3)N(C)C(=O)CCC(=O)Nc3cccc2c3)cc1OC [Compound 869]
Prolif. H929 (H929): low | Rel. Prolif., NCI-H929 (H929): low

COc1ccc(CC[C@H]2OC(=O)[C@@H]3CCCCN3C(=O)C(=O)C(C)(C)COC(=O)C=CCCN(C)C(=O)[C@@H](Cc3ccccc3)NC(=O)CN(C)C(=O)[C@@H](Cc3ccccc3)NC(=O)[C@H](Cc3ccc(OC(=O)N4CCOCC4)cc3)NC(=O)COc3cccc2c3)cc1OC [Compound 877]
Prolif. H929 (H929): low | Rel. Prolif., NCI-H929 (H929): kmv

CCCC[C@H]1C(=O)N[C@@H](Cc2ccc3ccccc3c2)C(=O)N(C)[C@@H](COC(C)(C)C)C(=O)NCC(=O)N(C)CCC=CC(=O)OCC(C)(C)C(=O)C(=O)N2CCCC[C@H]2C(=O)O[C@H](CCc2ccc(OC)c(OC)c2)c2cccc(c2F)OCC(=O)N1C [Compound 1563]
Rel. Uptake, 293T [2]: high | Prolif, A549 [1]: high

CCCC[C@H]1C(=O)N[C@@H](Cc2ccc3ccccc3c2)C(=O)N(C)[C@@H](COC(C)(C)C)C(=O)NCC(=O)N(C)CCC=CC(=O)OCC(C)(C)C(=O)C(=O)N2CCCC[C@H]2C(=O)O[C@H](CCc2ccc(OC)c(O)c2)c2cccc(c2)OCC(=O)N1C [Compound 1564]
Rel. Uptake, 293T [2]: high | Prolif, A549 [1]: high

CCCC[C@H]1C(=O)N[C@@H](Cc2ccc3ccccc3c2)C(=O)N(C)[C@@H](COC(C)(C)C)C(=O)NCC(=O)N(C)CCC=CC(=O)OCC(C)(C)C(=O)C(=O)N2CCCC[C@H]2C(=O)O[C@H](CCc2ccc(OC)c(OC)c2)c2cncc(c2)OCC(=O)N1C [Compound 1565]
Rel. Uptake, 293T [2]: low | Prolif, A549 [1]: low

CC[C@H](C)[C@H]1C(=O)NCC(=O)N(C)CC/C=C\C(=O)OCC(C)(C)C(=O)C(=O)N2CCCC[C@H]2C(=O)O[C@H](CCc2ccc(OC)c(OC)c2)c2cccc(c2)NC(=O)CCC(=O)N(C)[C@@H](CC(C)C)C(=O)N[C@H](Cc2ccccc2)C(=O)N1C [Compound 1592]
Rel. Uptake, 293T [2]: Low (“Low” indicates a response greater than 0.6 times the activity relative to DMSO) | pIC50 ([1]; Homo sapiens, Table 17): > 6.52
